Laboratory results reported in paper PMC12196347, “Evaluating Triazole-Substituted Pyrrolopyrimidines as CSF1R Inhibitors” (Molecules, 2025).
Values after ≈ are worked out from the molar mass of the structure shown.

Key:
[1] = Kinetic solubility, spectrophotometric; type: physicochemical; conditions: aqueous buffer, kinetic from dmso stock, spectrophotometrically at pH 7.4 in HEPES buffer
CSF1R Ba/F3 cells = assay: Cell viability assay, Ba/F3 cells engineered to be dependent on CSF1R; type: cell-based; conditions: duplicate measurements; for IC50: Mus musculus, BaF3, Ba/F3 cells dependent on CSF1R; for CSF1R Ba/F3 IC50: Ba/F3 cells dependent on CSF1R
CSF1R = molecular target: T1, CSF1R (Homo sapiens, UniProt P07333); assay: CSF1R enzymatic inhibition, TR-FRET-based LANCE Ultra assay; type: biochemical; conditions: single 8-point titrations, ATP concentration 25 µM, read-out: Enz. IC50
T1 sequence (P07333 539-972 limits assumed): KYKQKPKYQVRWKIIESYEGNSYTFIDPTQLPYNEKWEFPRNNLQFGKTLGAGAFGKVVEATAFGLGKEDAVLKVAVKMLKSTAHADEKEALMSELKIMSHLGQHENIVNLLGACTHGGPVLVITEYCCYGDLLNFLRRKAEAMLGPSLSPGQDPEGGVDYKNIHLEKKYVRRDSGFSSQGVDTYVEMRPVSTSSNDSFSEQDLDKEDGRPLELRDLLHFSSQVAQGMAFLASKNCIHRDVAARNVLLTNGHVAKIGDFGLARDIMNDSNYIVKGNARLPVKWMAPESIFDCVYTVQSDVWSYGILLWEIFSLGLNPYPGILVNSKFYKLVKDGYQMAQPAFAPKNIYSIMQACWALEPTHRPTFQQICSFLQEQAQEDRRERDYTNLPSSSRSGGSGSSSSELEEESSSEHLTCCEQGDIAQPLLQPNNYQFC

[2] = system: IL-3 dependent Ba/F3 cell line (CSF1R independent); assay: Control assay for cellular toxicity, Ba/F3 cells dependent on IL-3; type: cell-based; conditions: Mus musculus, BaF3; Ba/F3 cells dependent on IL-3, control for cellular toxicity

Row | SMILES | solubility kinetic [1] [µM] | IC50 (CSF1R Ba/F3 cells) [µM] | IC50 (CSF1R) [µM] | IC50 [2] [µM] | CSF1R Ba/F3 IC50 (CSF1R Ba/F3 cells)
1 | COc1ccc(Cn2cc(-c3cc4c(N(C)Cc5cccc(C)c5)ncnc4[nH]3)nn2)cc1 [Compound 26a, 6-(1-(4-Methoxybenzyl)-1H-1,2,3-triazol-4-yl)-N-methyl-N-(3-methylbenzyl)-7H-pyrrolo[2,3-d]pyrimidin-4-amine] | 4.6 (≈ 2.02 µg/mL) | 2.8 ± 0.3 | 0.0058 | > 10 | 
2 | Cc1ccc(-n2cc(-c3cc4c(N(C)CC5CCOCC5)ncnc4[nH]3)nn2)cc1 [Compound 20b, N-Methyl-N-((tetrahydro-2H-pyran-4-yl)methyl)-6-(1-(p-tolyl)-1H-1,2,3-triazol-4-yl)-7H-pyrrolo[2,3-d]pyrimidin-4-amine] | 0.7 (≈ 0.282 µg/mL) | 3.2 ± 0.9 | 0.0091 | > 10 | 
3 | Cc1cccc(CN(C)c2ncnc3[nH]c(-c4cn(CCCO)nn4)cc23)c1 [Compound 28a, 3-(4-(4-(Methyl(3-methylbenzyl)amino)-7H-pyrrolo[2,3-d]pyrimidin-6-yl)-1H-1,2,3-triazol-1-yl)propan-1-ol] | 5.5 (≈ 2.08 µg/mL) | 1 ± 0.1 | < 0.001 | > 10 | 
4 | Cc1cccc(CN(C)c2ncnc3[nH]c(-c4cn(C5CCN(C)CC5)nn4)cc23)c1 [Compound 30a, N-Methyl-N-(3-methylbenzyl)-6-(1-(1-methylpiperidin-4-yl)-1H-1,2,3-triazol-4-yl)-7H-pyrrolo[2,3-d]pyrimidin-4-amine] | 51 (≈ 21.2 µg/mL) | 1.1 ± 0.1 | < 0.001 | > 10 | 
5 | CN(CC1CCOCC1)c1ncnc2[nH]c(-c3cn(CC4CCOCC4)nn3)cc12 [Compound 31b, N-Methyl-N-((tetrahydro-2H-pyran-4-yl)methyl)-6-(1-((tetrahydro-2H-pyran-4-yl)methyl)-1H-1,2,3-triazol-4-yl)-7H-pyrrolo[2,3-d]pyrimidin-4-amine] | 45 (≈ 18.5 µg/mL) | 1 ± 0.2 | < 0.001 | > 10 | 
6 | Cc1cccc(CN(C)c2ncnc3[nH]c(-c4cn(-c5cccnc5)nn4)cc23)c1 [Compound 22a, N-Methyl-N-(3-methylbenzyl)-6-(1-(pyridin-3-yl)-1H-1,2,3-triazol-4-yl)-7H-pyrrolo[2,3-d]pyrimidin-4-amine] | 11 (≈ 4.36 µg/mL) | 1.2 ± 0.2 | 0.0023 | > 10 | 
7 | CN(CC1CCOCC1)c1ncnc2[nH]c(-c3cn(C4CCOCC4)nn3)cc12 [Compound 29b, N-Methyl-6-(1-(tetrahydro-2H-pyran-4-yl)-1H-1,2,3-triazol-4-yl)-N-((tetrahydro-2H-pyran-4-yl)methyl)-7H-pyrrolo[2,3-d]pyrimidin-4-amine] | 76 (≈ 30.2 µg/mL) | > 10 | < 0.001 | > 10 | No measurable cell activity
8 | CN(CC1CCOCC1)c1ncnc2[nH]c(-c3cn(-c4ccccc4)nn3)cc12 [Compound 18b, N-Methyl-6-(1-phenyl-1H-1,2,3-triazol-4-yl)-N-((tetrahydro-2H-pyran-4-yl)methyl)-7H-pyrrolo[2,3-d]pyrimidin-4-amine] | 14 (≈ 5.45 µg/mL) | > 10 |  | > 10 | 
9 | CN(CC1CCOCC1)c1ncnc2[nH]c(-c3cn(Cc4ccc(F)cc4)nn3)cc12 [Compound 24b, 6-(1-(4-Fluorobenzyl)-1H-1,2,3-triazol-4-yl)-N-methyl-N-((tetrahydro-2H-pyran-4-yl)methyl)-7H-pyrrolo[2,3-d]pyrimidin-4-amine] | 1.7 (≈ 0.717 µg/mL) | 4.6 ± 2.7 | 0.0015 | > 10 | 
10 | CN1CCC(n2cc(-c3cc4c(N(C)CC5CCOCC5)ncnc4[nH]3)nn2)CC1 [Compound 30b, N-Methyl-6-(1-(1-methylpiperidin-4-yl)-1H-1,2,3-triazol-4-yl)-N-((tetrahydro-2H-pyran-4-yl)methyl)-7H-pyrrolo[2,3-d]pyrimidin-4-amine] | 42 (≈ 17.2 µg/mL) | 2.4 ± 0.5 | < 0.001 | > 10 | 
11 | COc1ccc(-n2cc(-c3cc4c(N(C)Cc5cccc(C)c5)ncnc4[nH]3)nn2)cc1 [Compound 21a, 6-(1-(4-Methoxyphenyl)-1H-1,2,3-triazol-4-yl)-N-methyl-N-(3-methylbenzyl)-7H-pyrrolo[2,3-d]pyrimidin-4-amine] | 1.3 (≈ 0.553 µg/mL) | 6 | 0.0059 | > 10 | 
12 | Cc1cccc(CN(C)c2ncnc3[nH]c(-c4cn(CC5CCOCC5)nn4)cc23)c1 [Compound 31a, N-Methyl-N-(3-methylbenzyl)-6-(1-((tetrahydro-2H-pyran-4-yl)methyl)-1H-1,2,3-triazol-4-yl)-7H-pyrrolo[2,3-d]pyrimidin-4-amine] | 2.5 (≈ 1.04 µg/mL) | 2.7 ± 1 | < 0.001 | > 10 | 
13 | CN(CC1CCOCC1)c1ncnc2[nH]c(-c3cn(-c4cccnc4)nn3)cc12 [Compound 22b, N-Methyl-6-(1-(pyridin-3-yl)-1H-1,2,3-triazol-4-yl)-N-((tetrahydro-2H-pyran-4-yl)methyl)-7H-pyrrolo[2,3-d]pyrimidin-4-amine] | 37 (≈ 14.4 µg/mL) | 1.6 ± 0.3 | 0.0021 | > 10 | 
14 | CN(CC1CCOCC1)c1ncnc2[nH]c(-c3cn(Cc4ccccc4)nn3)cc12 [Compound 23b, 6-(1-Benzyl-1H-1,2,3-triazol-4-yl)-N-methyl-N-((tetrahydro-2H-pyran-4-yl)methyl)-7H-pyrrolo[2,3-d]pyrimidin-4-amine] | 4.9 (≈ 1.98 µg/mL) | 3.7 ± 1.9 | < 0.001 | > 10 | 
15 | CN(CC1CCOCC1)c1ncnc2[nH]c(-c3cn(-c4ccc(F)cc4)nn3)cc12 [Compound 19b, 6-(1-(4-Fluorophenyl)-1H-1,2,3-triazol-4-yl)-N-methyl-N-((tetrahydro-2H-pyran-4-yl)methyl)-7H-pyrrolo[2,3-d]pyrimidin-4-amine] | 11 (≈ 4.48 µg/mL) | > 10 | 0.0021 | > 10 | No measurable cell activity
16 | Cc1ccc(Cn2cc(-c3cc4c(N(C)Cc5cccc(C)c5)ncnc4[nH]3)nn2)cc1 [Compound 25a, N-Methyl-N-(3-methylbenzyl)-6-(1-(4-methylbenzyl)-1H-1,2,3-triazol-4-yl)-7H-pyrrolo[2,3-d]pyrimidin-4-amine] | 1.1 (≈ 0.466 µg/mL) | > 10 | 0.0063 | > 10 | 
17 | COc1ccc(Cn2cc(-c3cc4c(N(C)CC5CCOCC5)ncnc4[nH]3)nn2)cc1 [Compound 26b, 6-(1-(4-Methoxybenzyl)-1H-1,2,3-triazol-4-yl)-N-methyl-N-((tetrahydro-2H-pyran-4-yl)methyl)-7H-pyrrolo[2,3-d]pyrimidin-4-amine] | 7.2 (≈ 3.12 µg/mL) | 1.5 ± 0.5 | < 0.001 | > 10 | 
18 | Cc1cccc(CN(C)c2ncnc3[nH]c(-c4cn(C5CCOCC5)nn4)cc23)c1 [Compound 29a, N-Methyl-N-(3-methylbenzyl)-6-(1-(tetrahydro-2H-pyran-4-yl)-1H-1,2,3-triazol-4-yl)-7H-pyrrolo[2,3-d]pyrimidin-4-amine] | 20 (≈ 8.07 µg/mL) | > 10 | < 0.001 | > 10 | 
19 | Cc1cccc(CN(C)c2ncnc3[nH]c(-c4cn(Cc5ccc(F)cc5)nn4)cc23)c1 [Compound 24a, 6-(1-(4-Fluorobenzyl)-1H-1,2,3-triazol-4-yl)-N-methyl-N-(3-methylbenzyl)-7H-pyrrolo[2,3-d]pyrimidin-4-amine] | 0.2 (≈ 0.0855 µg/mL) | > 10 | 0.002 | > 10 | 
20 | Cc1cccc(CN(C)c2ncnc3[nH]c(-c4cn(-c5ccc(F)cc5)nn4)cc23)c1 [Compound 19a, 6-(1-(4-Fluorophenyl)-1H-1,2,3-triazol-4-yl)-N-methyl-N-(3-methylbenzyl)-7H-pyrrolo[2,3-d]pyrimidin-4-amine] | 0.4 (≈ 0.165 µg/mL) | > 10 | 0.0077 | > 10 | 
21 | Cc1cccc(CN(C)c2ncnc3[nH]c(-c4cn(-c5ccccc5)nn4)cc23)c1 [Compound 18a, N-Methyl-N-(3-methylbenzyl)-6-(1-phenyl-1H-1,2,3-triazol-4-yl)-7H-pyrrolo[2,3-d]pyrimidin-4-amine] | 0.3 (≈ 0.119 µg/mL) | > 10 | 0.0019 | > 10 | 
22 | CN(CC1CCOCC1)c1ncnc2[nH]c(-c3cn(CCCO)nn3)cc12 [Compound 28b, 3-(4-(4-(Methyl((tetrahydro-2H-pyran-4-yl)methyl)amino)-7H-pyrrolo[2,3-d]pyrimidin-6-yl)-1H-1,2,3-triazol-1-yl)propan-1-ol] | 495 (≈ 184 µg/mL) | > 10 | 0.0011 | > 10 | inactive
23 | Cc1cccc(CN(C)c2ncnc3[nH]c(-c4cn(Cc5ccccc5)nn4)cc23)c1 [Compound 23a, 6-(1-Benzyl-1H-1,2,3-triazol-4-yl)-N-methyl-N-(3-methylbenzyl)-7H-pyrrolo[2,3-d]pyrimidin-4-amine] | 0.3 (≈ 0.123 µg/mL) | > 10 | 0.002 | > 10 | 
